From patent US11364258B2, “Methods for treating chondrosarcoma using microrna(miR)” (Rhode Island Hospital, priority 2016, dated 2022)

Tests used:
metastasis = conditions: literature (Sun et al. 2013; Smith et al. 2004); cited from earlier work
chondrosarcoma cells = assay: CyQUANT cell proliferation assay; format: cell-based, human
Procedure: (§1) Cell lines: Human primary chondrocytes and chondrosarcoma cell lines were cultured as previously described (Kulshreshtha et al., Cell Cycle. 2007; 6:1426-1431). CS-1 (a gift from Dr. Francis Hornicek, Harvard Medical School, Boston, Mass.) was cultured in Gibco RPMI 1640 Medium (Life Technologies, Grand Island, N.Y.), with 10% FBS in a humidified incubator (NuAire Inc, Plymouth, Minn.) under 5% CO2 and either normoxia (ambient oxygen) or hypoxia (2% O2)(11). CS-1 was derived from human grade III chondrosarcoma and metastasizes in a xenograft mouse model(Susa M, Morii T, Yabe H, Horiuchi K, Toyama Y, Weissbach L, et al. Alendronate inhibits growth of high-grade chondrosarcoma cells. Anticancer Res. 2009 June; 29(6):1879-88.). All cells were cultured in a humidified incubator (NuAire Inc, Plymouth, Minn., USA) under 5% CO2 and either normoxia or hypoxia (2% O2) (Lin et al., J Orthop Res. 2004; 22:1175-1181).
Cell proliferation assay: CyQUANT® Cell Proliferation Assay Kit according to manufacturer's protocol

[1] = tested on: placental growth factor (PLGF); assay: Angiogenesis antibody array in chondrosarcoma cells (PLGF); format: cell-based, human; conditions: vs miR control; FIG. 3
Procedure: (§2) Angiogenesis antibody array: Human Angiogenesis Array Kit is a membrane-based sandwich immunoassay. Samples are mixed with a cocktail of biotinylated detection antibodies and then incubated with the array membrane which is spotted in duplicate with capture antibodies to specific target proteins. Captured proteins are visualized using chemiluminescent detection reagents. The signal produced is proportional to the amount of bound analyte. It is sensitive and economical tool to simultaneously detect the relative levels of 55 angiogenesis-related proteins in a single sample.

thrombospondin-1 (TSP-1) = assay: Angiogenesis antibody array in chondrosarcoma cells (TSP-1); format: cell-based, human; conditions: vs miR control; FIG. 3
Procedure: as §2

Met = assay: Western blot of Met protein in chondrosarcoma cells; format: cell-based, human; conditions: vs miRNA control; FIG. 5
Source text: Western blot: Cell or tumor lysates containing forty μg of protein were separated via SDS-PAGE (Bio-Rad, Hercules, Calif.) and probed with antibodies for VEGF (VEGFA), MMP-1, SSX, and actin (Santa Cruz Biotechnology, Santa Cruz, Calif.). The fluorescent signals were detected using a fluorescently-labeled secondary goat anti-rabbit antibody (Alexa Fluor 680) (Molecular Probes, Eugene, Oreg.) and analyzed on Licor Odyssey Scanner (LI-COR Biosciences, Lincoln, Nebr.). Western Blot analyses were performed as previously described with specific antibodies (IMGNEX, San Diego, Calif.) and actin antibody (Santa Cruz Biotechnology, Santa Cruz, Calif.). Protein concentrations were determined using the Quick Start Bradford protein assay (Bio-Rad).

VEGF [2] = assay: Angiogenesis antibody array in chondrosarcoma cells (VEGF); format: cell-based, human; conditions: vs miR control; FIG. 3
Procedure: as §2

VEGF [3] = assay: ELISA of VEGF expression in chondrosarcoma cells after transfection; format: cell-based, human
Procedure: as §1
Transfections were performed with GenMute transfection reagent (SignaGen Laboratories, Gaithersburg, Md.). pmiRZIP lentivector expressing anti-miR-181a or control sequence (SBI, Mountain View, Calif.) was used for permanent miR-181a knockdown experiments. Transduction-ready FIV-based pseudoviral particles were generated using pPACK-H1 Lentivector Packaging System together with 293TN cell line (SBI), at a titer of 1.06×10^9 IFU/ml. Control was Lenti-scramble Hairpin control pseudoviral particles at a titer of 1×10^9 IFU/ml. Cells were cultured in 12-well plates at a density of 1×10^5/well for 1 day, infected by pseudoviral particles (using a multiplicity of infection of 100 viruses per cell) and cultured for 72 hrs, then selected for puromycin (5 μg/ml) resistance for stable cell lines. Stably transduced cells were used for vitro and in vivo experiments.
ELISA: Conditioned medium was obtained 72 hours after transfection. Soluble VEGF-165 and MMP1 were detected using VEGF and MMP1 Immunoassay kits (R&D Systems, Minneapolis, Minn.) according to manufacturer's instructions. VEGF-165 and MMP1 levels were measured two times for each condition and with normalization to the number of cells at the end of the culture period. Each experiment was repeated three times. Twenty mg of xenograft tumor tissue in RIPA buffer containing proteinase inhibitors (Roche) was homogenized on ice using TissueRuptor (Qiagen). Tissue lysates were centrifuge at 14000 rpm for 30 min, supernatant saved at −80° C. for later use. VEGF-165 levels in xenograft tumor lysates were normalized to total protein.

SSX1 = assay: qRT-PCR of SSX1 mRNA in chondrosarcoma cells; format: cell-based, human; conditions: 20 nM; vs control cells or anti-miR-34a; FIG. 10A
Procedure: qRT-PCR: miR expression evaluated with qRT-PCR using Hs_miR-181a primer 5′-AACAUUCAACGCUGU-CGGUGAGU-3′ (SEQ ID NO:198) and 1280: 5′UCCCACCGCUGCCACCC-3′ (SEQ ID NO:199) (Qiagen). The comparative threshold cycle (Ct) method, i.e., 2-ΔΔCt method is used to calculate fold amplification. For quantification of mRNA, total RNA was isolated from chondrocytes, CS-1 cells, and xenograft mouse tumors using the RNAqueous® Kit (Ambion, Austin, Tex., USA). SYBR real-time PCR was carried out using two-step real-time qRT-PCR (Qiagen) with normalization to 18S rRNA (18S). The comparative threshold cycle (Ct) method, i.e., the 2-ΔΔCt method, was used for the calculation of fold amplification. Each experiment was evaluated with three PCR reactions and each experiment was repeated three times, the sample size necessary to maintain power at 0.80 to detect a 50% decrease with an alpha of 0.025 (one-tailed t-test).
ELISA, western blot, qRT-PCR, and cell proliferation assays were performed as described above.

Q: Which metastasis in mice (metastasis) does the source give for `c1cc(CN2CCCNCCNCCCNCC2)ccc1CN1CCCNCCNCCCNCC1` [AMD3100, plerixafor] here?
A: The metastasis in mice was “reduce metastasis”.

Q: For “miR-126: miScript miRNA mimic of miR-126; mature sequence SEQ ID NO: 188 CAUUAUUACUUUUGGUACGCG (listed as RNA, chemistry not given here)”, which “chondrosarcoma cell growth over time” value (chondrosarcoma cells; 20 nM miR-126 vs control miR, FIG. 6) is on record?
A: Its value is “grew more slowly over time”.

Q: And the “PLGF expression (angiogenesis antibody array)” value [1]?
A: Its value is “reduces the expression”.

Q: And the “TSP-1 expression (angiogenesis antibody array)” value (thrombospondin-1 (TSP-1))?
A: Its value is “reduces the expression”.

Q: What about the “Met protein expression (western blot)” value (Met) of the same molecule?
A: The value was “expression of Met protein decreased”.

Q: What about the “VEGF expression (angiogenesis antibody array)” value (VEGF [2]) of the same molecule?
A: Its value is “reduces the expression”.

Q: And the “VEGF expression after transient transfection (ELISA)” value (VEGF [3]; 20 nM miR-126, 80 nM anti-miR-126, normoxic and hypoxic conditions, FIG. 2 bottom)?
A: The value was “reduced VEGF expression”.

Q: What about the “VEGF expression (ELISA)” value (VEGF [3]; 10-80 nM of miR-126, normoxia and hypoxia (2% oxygen), FIG. 2 top) of the same molecule?
A: The value was “inhibited VEGF expression in a dose-dependent manner”.

Q: What does the source list for “miR-34a: miR-34a mimic, the same sequence as miR-34a (guide AACAUUCAACGCUGUCGGUGAGU; synthetic mimic, further chemistry not given here)”?
A: chondrosarcoma cell growth rates over time (chondrosarcoma cells; miR-34a vs control miR, FIG. 9, p<0.001): significantly decreased growth rates over time; SSX1 mRNA expression (qRT-PCR) (SSX1): decreased SSX1 mRNA expression; VEGF protein expression (ELISA, western blot) (VEGF [3]; 20 nM, vs control miR, control anti-miR or anti-miR-34a, FIG. 7A-7C, p<0.02, n=3): significantly decreased expression of VEGF protein; VEGF expression over time (ELISA) (VEGF [3]; secreted VEGF, vs control miR, FIG. 8, p<0.001): decreased VEGF expression over time
